Experimental findings from patent publication US4089959A, “Long-acting xanthine bronchodilators and antiallergy agents” (priority 1976, dated 1978) are described below.

For series [1], the system named is antigen-induced bronchconstriction. The experiment in a line: AA: antiallergy (anti-anaphylactic) activity against antigen-induced bronchoconstriction in sensitized rats. Particulars: 1h.
Source text: The animals are subdivided into control and test groups.
Test animals receive a drug either orally, intraperitoneally or intravenously and are challenged with intravenous antigen at fixed time intervals after dosing. Antigen-induced increases in tracheal pressure are monitored and reflect the extent of bronchoconstriction.
Series [2] concerns guinea pig tracheal chain. The experiment in a line: SP: spasmolytic activity in vitro, guinea pig tracheal chain preparation. It is filed as cell-based. Particulars: Cavia porcellus; given as fraction of molar, e.g. M/1000; read-out: SP in vitro, C: molar (M) concentration required to produce maximum relaxation. An excerpt:
SP: Spasmolytic activity evaluated in vitro using guinea pig tracheal chain preparation, and expressed as the molar (M) concentration required to produce maximum relaxation. The method used in that of Castillo and de Beer, J. Pharmac. Expt. Therap. 90, 104, 1947.

For series [3], the system named is histamine-induced bronchoconstriction. The experiment in a line: BD: bronchodilator activity against histamine-induced bronchoconstriction in the guinea pig. It is filed as in vivo. The following applies: for potency, in words: 4280 at 20 mpK po vs 4258 at 15 mpK po; for lethal (animals) / dose showing lethal effects: guinea pig; for dose showing lethal effects: po. How it is done:
A modification of the method of Siegmund. O. H., et.al., J. Pharmacol. and Exp. Therap. 90:254-9, 1947, is used. […] Times for prostration are recorded.

Another series can be described thus: LD50, mouse. The following applies: in vivo, po. How it is done:
(§1) The LD50 was determined in three species, the mouse (male, 18-25 g), the albino rat (female, 150-200 g) and the albino guinea pig (male 180-280 g) by oral administration and in the albino rat by intraperitoneal administration. The animals are fasted overnight prior to testing. Six groups of 10 animals are used; five groups are dosed with the test substance, the sixth group serves as a control and receives the drug vehicle at the highest test concentration. The compounds were administered in a 0.5% gum tragacanth solution in distilled water using a constant logarithmic increment in dose. Dose volume ranged from […].
The animals were housed five per cage (rat and guinea pig) or ten per cage (mouse) with free access to food and water. The number of dead animals was recorded daily for five consecutive days. The total mortality per group of 10 for each dose level was recorded and LD50 with Confidence Limits calculated according to the method described by Weil, C. S., Biometrics 8(3): 249-263, 1952.

For series [4], the system named is antigen-induced wheal formation. As to the kind of experiment: PCA: passive cutaneous anaphylaxis in the rat. It is filed as in vivo. The following applies: 20 mg/kg po. How it is done:
PCA: Antianaphylactic activity against passive cutaneous anaphylaxis in the rat, expressed as % protection against antigen-induced wheal formation.
The method used is that of Ogilvie, B. M., Immunology 12, 113-131 (1967). Reaginic […] antibodies develope in that rat following subcutaneous injection of Nippostrongylus brasiliensis larvae. Antisera, collected 28 days later are injected subcutaneously into new rats.

A short description of the next series: in vivo. How it is done: as §1
The animals were housed five per cage (rat and guinea pig) or ten per cage (mouse) with free access to food and water. The number of dead animals was recorded daily for five consecutive days.

Series [5] concerns histamine-induced bronchoconstriction. The experiment in a line: CP: cardiopulmonary activity against histamine-induced bronchoconstriction in the dog. It is filed as in vivo. The following applies: histamine administration; vs theophylline. An excerpt: Int. Pharmacodyn. Therap. […] Pretreatment with bronchodilator drugs aims to block the bronchospastic response to histamine. Each dog serves as its own control.

`CC(C)Cn1c(=O)n(C)c(=O)c2[nH]cnc21` [Compound 4258]: in series [1] (2.0 mpK ip), the “AA, toxicity noted in place of % protection” value is reported as “tox”. Further, in series [2], the EC (maximum relaxation) was 0.001 M. Also, the “BD, % protection” value turned out to be 45% in series [3] (15 mpK po, 30'); 75% in series [3] (15 mpK po, 2h); 39% in series [3] (15 mpK po, 4h). Also, the “potency, in words” value in series [3] is listed as “equal potency”. Moreover, in series [3] (25 mpK po), the “lethal (animals)” value is given as 2/4. In addition, the “dose showing lethal effects” value in series [3] is given as 25 mpK.
As for `CCC(C)Cn1c(=O)n(C)c(=O)c2[nH]cnc21` (stereo not shown) [Compound 4280], the “AA, % protection” value in series [1] (15 mpK ip) was determined as 56%. For the same molecule, the EC (maximum relaxation) in series [2] was found to be 0.001 M. Besides, the “BD, % protection” value was 86% in series [3] (20 mpK po, 30'); 86% in series [3] (20 mpK po, 1h); 80% in series [3] (20 mpK po, 2h); 13% in series [3] (20 mpK po, 4h). Besides, the “potency, in words” value in series [3] is recorded as “equal potency”. The “lethal (animals)” value in series [3] (80 mpK po) was 3/8. For the same molecule, the “dose showing lethal effects” value in series [3] turned out to be 80 mpK.
On to `Cc1nc2c([nH]1)c(=O)n(C)c(=O)n2C` [Compound 4296], for which, in series [2], the EC (maximum relaxation) turned out to be 0.0714 M. Further, the “BD, % protection” value is 23% in series [3] (100 mpK po, 8h); 68% in series [3] (150 mpK po, 30'); 85% in series [3] (150 mpK po, 8h).
For `CCCC(C)Cn1c(=O)n(C)c(=O)c2[nH]c(C)nc21` (stereo not shown) [Compound 4373, 1,8-dimethyl-3-(2-methyl-1-pentyl)xanthine], the “AA, % protection” value in series [1] (20 mpK ip) was determined as 54%. Further, the EC (maximum relaxation) in series [2] was found to be 0.05 M. Further, the “BD, % protection” value amounted to 71% in series [3] (40 mpK po, 30'); 87% in series [3] (40 mpK po, 4h); 96% in series [3] (40 mpK po, 6h); 81% in series [3] (80 mpK po, 30'); 100% in series [3] (80 mpK po, 4h).
By LD50 is commonly meant the dose expected to kill half of the subjects tested. Higher therefore signals lower toxicity. `CCC(C)Cn1c(=O)n(C)c(=O)c2[nH]c(C)nc21` (stereo not shown) [Compound 4383, 1,8-dimethyl-3-(2-methyl-1-butyl) xanthine]: the 50% lethal dose (LD50) at 120 h was 66.6 mg/kg in the series “LD50, mouse”; 24.6 mg/kg in the series “in vivo” (ip, rat); 21.7 mg/kg in “in vivo” (po, guinea pig); 88.7 mg/kg in “in vivo” (po, rat). Also, the “AA, % protection” value is given as 58% in series [1] (2.5 mpK po) and 57% in series [1] (4 mpK ip). In addition, in series [4], the “Wheal Diameter, % Δ” value stood at 50%. Further, the “Wheal Intensity, % Δ” value in series [4] was 48%. Moreover, the “Wheal Diameter: Mean ± S.E.M., Response” value in series [4] (control 1.50 ± 0.16) came to 0.74 ± 0.16 cm. Besides, the “Wheal Intensity: Mean ± S.E.M., Response” value in series [4] (control 2.17 ± 0.21) is listed as 1.13. Besides, the EC (maximum relaxation) in series [2] came to 0.001 M. The “bronchodilation in the dog, in words” value in series [5] is “significantly reduces the decrease in pulmonary compliance and increase in pulmonary resistance due to histamine administration”. For the same molecule, the “BD, % protection” value in series [3] (10 mpK po, 30') turned out to be 35%; in series [3] (10 mpK po, 2h), 63%; in series [3] (10 mpK po, 6h), 66%; in series [3] (20 mpK po, 1h) it was 92%; in series [3] (20 mpK po, 4h), 100%; in series [3] (20 mpK po, 6h), 97%. Besides, the “bronchodilation potency in the BD (guinea pig) assay, in words” value in series [3] (10 mpK po, 4383 vs 4388) is “about the same bronchodilation potency as 4388”. Also, the “toxic effects in the BD (guinea pig) assay, in words” value in series [3] (20 mpK po) is “no toxic effects”.
`Cc1nc2c([nH]1)c(=O)n(C)c(=O)n2CC(C)C` [Compound 4388, 1,8-dimethyl-3-isobutylxanthine]: the “AA, % protection” value was determined as 50% in series [1] (2.5 mpK po) and 70% in series [1] (75 mpK ip). In series [2], the EC (maximum relaxation) worked out at 0.001 M. For the same molecule, the “BD, % protection” value in series [3] (10 mpK po, 1h) is recorded as 76%; in series [3] (10 mpK po, 4h), 73%; in series [3] (10 mpK po, 6h), 80%. The “toxic effects in the BD (guinea pig) assay, in words” value in series [3] (20 mpK po) was “pronounced toxicity and was even lethal to one animal”. Also, in series [3] (general statement), the “bronchodilator potency, in words” value is “great potency and is long-acting”. Besides, the “lethal (animals)” value in series [3] (20 mpK po) was 1/4.
Turning to `Cn1c(=O)c2[nH]cnc2n(C)c1=O` [Theophylline, 1,3-dimethylxanthine], the EC (maximum relaxation) in series [2] is 0.1 M.
